ChEMBL document CHEMBL3885881, “DrugMatrix”

Organism: Rattus norvegicus
Test: DrugMatrix - Regimen: Daily Repeat
Type: toxicity, organism-based, Sprague-Dawley
Design: regimen Daily Repeat, gender Male, age 6-8 weeks
Conditions: in vivo, po, route oral GAVAGE, vehicle .5 % CMC; for BASOPHIL / EOSINOPHIL / ERYTHROCYTE COUNT / HEMATOCRIT / HEMOGLOBIN / LEUKOCYTE COUNT / LYMPHOCYTE / MEAN CORPUSCULAR HEMOGLOBIN / MEAN CORPUSCULAR HEMOGLOBIN CONCENTRATION / MEAN CORPUSCULAR VOLUME / MONOCYTE / NEUTROPHIL / PLATELET COUNT: tissue Blood; for ALANINE AMINOTRANSFERASE / ALBUMIN / ALKALINE PHOSPHATASE / ASPARTATE AMINOTRANSFERASE / BLOOD UREA NITROGEN / CARBON DIOXIDE / CHLORIDE / CHOLESTEROL / CREATINE PHOSPHOKINASE / CREATININE / GLUCOSE / LACTATE DEHYDROGENASE / LIPASE / PHOSPHORUS / POTASSIUM / SODIUM / TOTAL BILIRUBIN / TOTAL PROTEIN / URIC ACID: tissue Plasma
[1] = 0 mg/kg, 72 h, dose level Control, time 3 day
[2] = 0 mg/kg, 120 h, dose level Control, time 5 day
[3] = 0 mg/kg, […], dose level Control, time 14 day
[4] = 82 mg/kg, 72 h, dose level High, time 3 day
[5] = 82 mg/kg, 120 h, dose level High, time 5 day
[6] = 82 mg/kg, […], dose level High, time 14 day

## CCOP(=S)(OCC)Oc1nc(Cl)c(Cl)cc1Cl [CHLORPYRIFOS]
[1]
  BASOPHIL: 0.62%
  EOSINOPHIL: 0.52%
  ERYTHROCYTE COUNT: 6.33 x10E6/uL
  HEMATOCRIT: 41.88%
  HEMOGLOBIN: 13.52 G/DL
  LEUKOCYTE COUNT: 11.39 x10E3/uL
  LYMPHOCYTE: 86.18%
  MEAN CORPUSCULAR HEMOGLOBIN: 21.35 pg
  MEAN CORPUSCULAR HEMOGLOBIN CONCENTRATION: 32.23 G/DL
  MEAN CORPUSCULAR VOLUME: 66.25 fL
  MONOCYTE: 1.93%
  NEUTROPHIL: 9.1%
  PLATELET COUNT: 1204.5 x10E3/uL
  ALANINE AMINOTRANSFERASE: 43 u/L
  ALBUMIN: 4.08 G/DL
  ALKALINE PHOSPHATASE: 426.33 u/L
  ASPARTATE AMINOTRANSFERASE: 72.5 u/L
  BLOOD UREA NITROGEN: 16.67 mg/dL
  CARBON DIOXIDE: 28.33 mmol/L
  CHLORIDE: 103.5 MEQ/L
  CHOLESTEROL: 78.83 mg/dL
  CREATINE PHOSPHOKINASE: 325.67 u/L
  CREATININE: 0.48 mg/dL
  GLUCOSE: 171.67 mg/dL
  LACTATE DEHYDROGENASE: 107.33 u/L
  LIPASE: 11.83 u/L
  PHOSPHORUS: 12.55 mg/dL
  POTASSIUM: 6.57 MEQ/L
  SODIUM: 145.67 MEQ/L
  TOTAL BILIRUBIN: 0.42 mg/dL
  TOTAL PROTEIN: 6.1 G/DL
  URIC ACID: 1.57 mg/dL
[2]
  BASOPHIL: 0.48%
  EOSINOPHIL: 0.67%
  ERYTHROCYTE COUNT: 6.69 x10E6/uL
  HEMATOCRIT: 44.17%
  HEMOGLOBIN: 13.78 G/DL
  LEUKOCYTE COUNT: 7.86 x10E3/uL
  LYMPHOCYTE: 85.9%
  MEAN CORPUSCULAR HEMOGLOBIN: 20.6 pg
  MEAN CORPUSCULAR HEMOGLOBIN CONCENTRATION: 31.25 G/DL
  MEAN CORPUSCULAR VOLUME: 65.9 fL
  MONOCYTE: 3.27%
  NEUTROPHIL: 8.67%
  PLATELET COUNT: 1182.33 x10E3/uL
  ALANINE AMINOTRANSFERASE: 37.5 u/L
  ALBUMIN: 4 G/DL
  ALKALINE PHOSPHATASE: 348.17 u/L
  ASPARTATE AMINOTRANSFERASE: 71.67 u/L
  BLOOD UREA NITROGEN: 13 mg/dL
  CARBON DIOXIDE: 27 mmol/L
  CHLORIDE: 104.67 MEQ/L
  CHOLESTEROL: 73.33 mg/dL
  CREATINE PHOSPHOKINASE: 211.33 u/L
  CREATININE: 0.23 mg/dL
  GLUCOSE: 155 mg/dL
  LACTATE DEHYDROGENASE: 133.83 u/L
  LIPASE: 11.17 u/L
  PHOSPHORUS: 14.53 mg/dL
  POTASSIUM: 6.65 MEQ/L
  SODIUM: 148.17 MEQ/L
  TOTAL BILIRUBIN: 0.28 mg/dL
  TOTAL PROTEIN: 6.22 G/DL
  URIC ACID: 1.57 mg/dL
[3]
  BASOPHIL: 0.97%
  EOSINOPHIL: 0.8%
  ERYTHROCYTE COUNT: 7.02 x10E6/uL
  HEMATOCRIT: 44.43%
  HEMOGLOBIN: 14.58 G/DL
  LEUKOCYTE COUNT: 16.49 x10E3/uL
  LYMPHOCYTE: 79.03%
  MEAN CORPUSCULAR HEMOGLOBIN: 20.85 pg
  MEAN CORPUSCULAR HEMOGLOBIN CONCENTRATION: 32.78 G/DL
  MEAN CORPUSCULAR VOLUME: 63.57 fL
  MONOCYTE: 1.9%
  NEUTROPHIL: 15.18%
  PLATELET COUNT: 1184.33 x10E3/uL
  ALANINE AMINOTRANSFERASE: 43 u/L
  ALBUMIN: 4.25 G/DL
  ALKALINE PHOSPHATASE: 409.67 u/L
  ASPARTATE AMINOTRANSFERASE: 84.17 u/L
  BLOOD UREA NITROGEN: 16 mg/dL
  CARBON DIOXIDE: 35.17 mmol/L
  CHLORIDE: 99.83 MEQ/L
  CHOLESTEROL: 68.67 mg/dL
  CREATINE PHOSPHOKINASE: 384.17 u/L
  CREATININE: 0.43 mg/dL
  GLUCOSE: 160 mg/dL
  LACTATE DEHYDROGENASE: 115.33 u/L
  LIPASE: 17.33 u/L
  PHOSPHORUS: 10.68 mg/dL
  POTASSIUM: 6.48 MEQ/L
  SODIUM: 148.17 MEQ/L
  TOTAL BILIRUBIN: 0.45 mg/dL
  TOTAL PROTEIN: 6.57 G/DL
  URIC ACID: 1.78 mg/dL
[4]
  BASOPHIL: 0.9%
  EOSINOPHIL: 0.43%
  ERYTHROCYTE COUNT: 6.87 x10E6/uL
  HEMATOCRIT: 44.5%
  HEMOGLOBIN: 14.33 G/DL
  LEUKOCYTE COUNT: 11.45 x10E3/uL
  LYMPHOCYTE: 88.3%
  MEAN CORPUSCULAR HEMOGLOBIN: 20.9 pg
  MEAN CORPUSCULAR HEMOGLOBIN CONCENTRATION: 32.27 G/DL
  MEAN CORPUSCULAR VOLUME: 64.87 fL
  MONOCYTE: 1.27%
  NEUTROPHIL: 7.87%
  PLATELET COUNT: 1233 x10E3/uL
  ALANINE AMINOTRANSFERASE: 42 u/L
  ALBUMIN: 4.03 G/DL
  ALKALINE PHOSPHATASE: 285.67 u/L
  ASPARTATE AMINOTRANSFERASE: 78.33 u/L
  BLOOD UREA NITROGEN: 15.33 mg/dL
  CARBON DIOXIDE: 30.33 mmol/L
  CHLORIDE: 103.67 MEQ/L
  CHOLESTEROL: 47 mg/dL
  CREATINE PHOSPHOKINASE: 263.33 u/L
  CREATININE: 0.5 mg/dL
  GLUCOSE: 170 mg/dL
  LACTATE DEHYDROGENASE: 57.67 u/L
  LIPASE: 11 u/L
  PHOSPHORUS: 13.43 mg/dL
  POTASSIUM: 7.33 MEQ/L
  SODIUM: 146 MEQ/L
  TOTAL BILIRUBIN: 0.37 mg/dL
  TOTAL PROTEIN: 5.93 G/DL
  URIC ACID: 1.53 mg/dL
[5]
  BASOPHIL: 0.33%
  EOSINOPHIL: 0.5%
  ERYTHROCYTE COUNT: 7.39 x10E6/uL
  HEMATOCRIT: 47.37%
  HEMOGLOBIN: 15.03 G/DL
  LEUKOCYTE COUNT: 10.09 x10E3/uL
  LYMPHOCYTE: 72.77%
  MEAN CORPUSCULAR HEMOGLOBIN: 20.37 pg
  MEAN CORPUSCULAR HEMOGLOBIN CONCENTRATION: 31.73 G/DL
  MEAN CORPUSCULAR VOLUME: 64.2 fL
  MONOCYTE: 4.53%
  NEUTROPHIL: 20.93%
  PLATELET COUNT: 1284.67 x10E3/uL
  ALANINE AMINOTRANSFERASE: 55.33 u/L
  ALBUMIN: 3.9 G/DL
  ALKALINE PHOSPHATASE: 305.67 u/L
  ASPARTATE AMINOTRANSFERASE: 236.67 u/L
  BLOOD UREA NITROGEN: 13 mg/dL
  CARBON DIOXIDE: 28.33 mmol/L
  CHLORIDE: 103.67 MEQ/L
  CHOLESTEROL: 44.67 mg/dL
  CREATINE PHOSPHOKINASE: 186.67 u/L
  CREATININE: 0.33 mg/dL
  GLUCOSE: 139.33 mg/dL
  LACTATE DEHYDROGENASE: 62.67 u/L
  LIPASE: 8 u/L
  PHOSPHORUS: 12.8 mg/dL
  POTASSIUM: 6 MEQ/L
  SODIUM: 148 MEQ/L
  TOTAL BILIRUBIN: 0.27 mg/dL
  TOTAL PROTEIN: 6 G/DL
  URIC ACID: 1.63 mg/dL
[6]
  BASOPHIL: 0.37%
  EOSINOPHIL: 0.67%
  ERYTHROCYTE COUNT: 7.6 x10E6/uL
  HEMATOCRIT: 45.9%
  HEMOGLOBIN: 15.3 G/DL
  LEUKOCYTE COUNT: 16.12 x10E3/uL
  LYMPHOCYTE: 84.43%
  MEAN CORPUSCULAR HEMOGLOBIN: 20.2 pg
  MEAN CORPUSCULAR HEMOGLOBIN CONCENTRATION: 33.37 G/DL
  MEAN CORPUSCULAR VOLUME: 60.43 fL
  MONOCYTE: 1.7%
  NEUTROPHIL: 11.33%
  PLATELET COUNT: 1183 x10E3/uL
  ALANINE AMINOTRANSFERASE: 46 u/L
  ALBUMIN: 4.3 G/DL
  ALKALINE PHOSPHATASE: 329.67 u/L
  ASPARTATE AMINOTRANSFERASE: 114 u/L
  BLOOD UREA NITROGEN: 16.33 mg/dL
  CARBON DIOXIDE: 26.67 mmol/L
  CHLORIDE: 101 MEQ/L
  CHOLESTEROL: 72 mg/dL
  CREATINE PHOSPHOKINASE: 262 u/L
  CREATININE: 0.43 mg/dL
  GLUCOSE: 144 mg/dL
  LACTATE DEHYDROGENASE: 145.67 u/L
  LIPASE: 9 u/L
  PHOSPHORUS: 10.07 mg/dL
  POTASSIUM: 6.2 MEQ/L
  SODIUM: 149 MEQ/L
  TOTAL BILIRUBIN: 0.4 mg/dL
  URIC ACID: 1.8 mg/dL
